# Data reported in paper PMC12040169 (PLOS Biology, 2025).
# Experiment: in vitro
# Conditions: human, hela cells, % viability
row,Compound,"viability at 28.5 h, 10 µM"
1,O=C(Cn1ncc2cccn2c1=O)OC1CCCCC1 [CBK283667],91.8%
2,COc1ccc(Nc2nc(-c3cc(C(C)C)ccc3OC)cnc2N)c(C)c1 [CBK064098],87%
3,Cn1nc(C(C)(C)C)c2cc(C(=O)N3CCCc4occc4C3)cnc21 [CBK304713],97.7%
4,COc1cccc(NC(=O)N2CCC(n3c(=O)n(C(=O)Nc4cccc(OC)c4)c4ccccc43)CC2)c1 [CBK149177],94.8%
5,CC(C)(C)c1ccc(N(C2CCNCC2)S(=O)(=O)c2ccc(Cl)cc2Cl)cc1 [CBK165067T],51%
6,COc1ccc(-c2cnn(-c3ccc(OC(F)(F)F)cc3)n2)cc1 [CBK112773],87.6%
7,CCc1nnc(CN(C)Cc2c(C)nn(C)c2Cl)o1 [CBK304132],90.5%
8,CCCNC(CC(=O)Nc1ccccc1)C(=O)O (stereo not shown) [CBK266819],95.3%
9,c1ccc(CC(NCc2c[nH]c3ccccc23)c2ccccc2)cc1 (stereo not shown) [CBK262087],96.4%
10,Cn1ccnc1C(NC(=O)c1ccncc1)c1ccc(F)c(F)c1 (stereo not shown) [CBK283808],104%
11,O=C(Cn1cc(Br)ccc1=O)NC1CCN(CCc2ccccc2)CC1 [CBK305887],99.5%
12,O=C(O)CCC(=O)NCC1OCCc2ccccc21 (stereo not shown) [CBK265865],89%
13,COc1nn(CC(=O)Nc2cccc(CCc3ccncc3)c2)c(=O)c2ccccc12 [CBK285560],94.5%
14,COc1cc(C(=O)CCN2CCCCC2)cc(OC)c1OC [CBK015639C],107%
15,O=C(Nc1cccnc1)c1cc(-c2ccc(Cl)cc2)on1 [CBK116555],92.8%
16,O=C(Nc1snnc1-c1ccc(Cl)cc1)c1cccc(C(F)(F)F)c1 [CBK153246],72.5%
17,Cc1ccc(-c2noc(CN3CCN(Cc4ccccc4)CC3)n2)cc1 [CBK267288],91.3%
18,CSc1nsc(SCC(=O)Nc2ccc3c(c2)OCO3)n1 [CBK270044],88.6%
19,CC(C)C(=O)N1CC2(CCN(CC3COc4ccccc4O3)CC2)c2ccccc21 (stereo not shown) [CBK143946],98.2%
20,COC(=O)Cn1c(-c2ccc(OC)cc2)cc2cccnc21 [CBK282268],82.7%
21,CN1CCC(C(=O)N2CCCc3ccccc32)CC1 [CBK200260],95%
22,Cc1ccc(S(=O)(=O)N(C(=O)c2ccncc2)c2ccc(OC(=O)c3ccncc3)cc2)c(C)c1 [CBK265635],104%

row,Compound,"viability at 28.5 h, 10 µM"
1,COc1cc([N+](=O)[O-])ccc1NC(=S)Nc1cccc(S(=O)(=O)N2CCOCC2)c1 [CBK267042],96.9%
2,Cc1ccccc1-c1ccc2n(c1=O)C[C@H]1C[C@@H]2CN(C(=O)CCC(=O)O)C1 [CBK289181],111%
3,O=C(CCc1ccccc1)Nc1cccc2nsnc12 [CBK265680],85.3%
4,Cc1cc(CCCC(=O)NCc2ccc(-c3ccc(C(N)=O)c(C)n3)cc2)ccc1F [CBK286016],90.3%
5,CC(C)(C)OC(=O)NC1CCc2ccccc2N(Cc2ccccc2)C1=O (stereo not shown) [CBK013366],97.1%
6,CCc1nnc(SCc2ccc(CSc3nnc(CC)n3N)cc2)n1N [CBK265689],106%
7,CC1CCc2c(C(=O)N3CC(C)OC(C)C3)csc2C1 (stereo not shown) [CBK304442],106%
8,Cc1ccc(C)c2[nH]c(=O)c(CN(CCN3CCOCC3)Cc3nnnn3Cc3ccccc3)cc12 [CBK108063],93.1%
9,CN(C)C(=O)N1CCN(C(=O)c2cn(Cc3cccc(S(C)(=O)=O)c3)nn2)CC1 [CBK160969T],89.7%
10,Cc1nc(=O)c(-c2ccccc2)c(C)n1CCc1c[nH]cn1 [CBK287900],89.3%
11,Nc1c(-c2ccsc2)cnc2ncccc12 [CBK083707],108%
12,CCN1CCC(CC(=O)NCCn2ccnc2C)CC1 [CBK281984],108%
13,Cc1ccc(S(=O)(=O)Nc2ccc3c(c2)CC(=O)N3)cc1 [CBK287657],92.1%
14,O=C(Cn1cccn1)NC(Cc1ccsc1)c1cccnc1 (stereo not shown) [CBK285396],97%
15,Cc1nc(C)n(CC2CCCN(Cc3ccc(C#N)cc3)C2)n1 (stereo not shown) [CBK305082],83.1%
16,O=C(CC1CCCC1)N1CCCC(c2cc3cccnc3[nH]2)C1 (stereo not shown) [CBK284940],98.6%
17,O=C1N[C@@H]2CCN(C(=O)COc3cccnc3)C[C@@H]2CCCCCOc2ccccc21 [CBK292037],94.6%
18,CCN(CC)CC1CCCN(C(=O)CCn2ccc3ccncc32)C1 (stereo not shown) [CBK285174],85.4%
19,COC(=O)c1ccc(NS(=O)(=O)c2cccc3cccnc23)cc1 [CBK028694],104%
20,OCCSc1ccc(C(F)(F)F)cn1 [CBK028739],115%
21,CCn1cc(CN2CCCN(C(=O)c3ccc(Cl)cn3)CC2)cn1 [CBK304760],84.3%
22,O=C(Nc1cc(Oc2cccnc2)cc([N+](=O)[O-])c1)c1sc2ccccc2c1Cl [CBK300485],106%

row,Compound,"viability at 28.5 h, 10 µM"
1,Brc1ccc2[nH]c3c(c2c1)CCOC31CCN(CC2CCCCO2)CC1 (stereo not shown) [CBK040648],87.8%
2,COc1cc(C)c(S(=O)(=O)Nc2ccc(CC(=O)O)cc2)cc1C [CBK299782],101%
3,Cc1cc(-c2cn3cc(C(=O)N4CCCC4C)nc3c(=O)n2C)c(C)o1 (stereo not shown) [CBK307038],84.8%
4,Cc1ccccc1-n1c(=O)cc(N2CCN(c3ccc(F)cc3)CC2)[nH]c1=O [CBK287508],95.1%
5,Cn1cc(C(c2ccc(OCC(=O)O)cc2)c2cn(C)c3ccccc23)c2ccccc21 [CBK266403],94.5%
6,CC(Sc1nc(N)cc(=O)[nH]1)C(=O)Nc1ccc(S(N)(=O)=O)cc1 (stereo not shown) [CBK266191],110%
7,O=C(O)CSCC(=O)c1ccccc1 [CBK262140],93.1%
8,CN(CC1COCCO1)C(=O)c1cc(Cn2ccc3ccccc32)[nH]n1 (stereo not shown) [CBK307673],111%
9,COc1ccc([C@@]23CC[C@@H](NC(=O)c4ccc(C(F)(F)F)c(F)c4)C[C@@H]2CN(C)C3)cc1OC [CBK082742C],107%
10,Cc1cc(C)cc(OC(C)C(=O)N2CCCc3c(cnn3C)C2)c1 (stereo not shown) [CBK285270],82.1%
11,Cc1ccc(S(=O)(=O)CC(=O)N2CCCC3(CCN(Cc4ccccc4)C3)C2)cc1 (stereo not shown) [CBK137098T],90.7%
12,Cn1cc(C(=O)Nc2cccc(S(=O)(=O)N3CCCCCC3)c2)cn1 [CBK305715],87.2%
13,O=C1C=C([C@@H]2O[C@H](CO)[C@H](O)C2O)C(=O)N1 (stereo partly shown) [CBK201255],101%
14,CC(C)[C@@H](CO)n1c(=O)[nH]c2ncc(-c3cccc4ccccc34)nc21 [CBK064961],98.6%
15,COc1cccc(CN2C(=O)CC3(C2=O)C(=O)N(CC(=O)c2ccccc2)c2ccccc23)c1 (stereo not shown) [CBK075984],88.9%
16,O=C(c1ccc(F)cc1)N1C[C@@H](c2ccsc2)[C@@H]2CN(Cc3ccccc3)CC[C@@H]21 [CBK285635],94.7%
17,S=c1n(CN2CCC3(CC2)OCCO3)nc(-c2ccccc2Cl)n1-c1ccccc1 [CBK265222],88.4%
18,Cn1ncc(N2CCC(CNC(=O)COc3ccc(Cl)cc3)C2)cc1=O (stereo not shown) [CBK306517],79%
19,O=CNCCCc1nc2ccccc2n1CCc1ccccc1 [CBK269393],89.5%
20,Nc1ncc(-c2occc2C=O)nc1NC1CCOCC1 [CBK063789],103%
21,O=C(O)c1cccc(Nc2nc(-c3ccccc3)nc3ccccc23)c1 [CBK263941C],97.6%
22,CC(=O)Nc1cccc(Oc2nccnc2/C=C/c2ccccc2)c1 [CBK106881],91.6%

row,Compound,"viability at 28.5 h, 10 µM"
1,Cc1ccc(N2CCCN(C(=O)COc3ccccc3F)CC2)nn1 [CBK305261],99.4%
2,COC(=O)[C@@H]1CN(C(=O)Nc2ccccc2)CCN1C(C)=O [CBK289606],88%
3,Cc1ccc2c(CC(=O)N(C)CCN3CCCCC3)coc2c1 [CBK282747],80.5%
4,CC(C)C(C(=O)Nc1ccc(S(=O)(=O)Nc2nccs2)cc1)N1C(=O)c2ccccc2C1=O (stereo not shown) [CBK265707],107%
5,O=C(O)c1sc2cc(C(F)(F)F)cnc2c1-c1cccs1 [CBK089890],114%
6,COc1cc(CNC2CCCCC2)ccc1OCC(N)=O [CBK263866],90.9%
7,Cc1ccc(OCc2ccccc2)c(C(CCN(C(C)C)C(C)C)c2ccccc2)c1 (stereo not shown) [CBK017906],108%
8,Cc1nc(C)n(C(C)CNC(=O)Cc2coc3cc(C)c(C)cc23)n1 (stereo not shown) [CBK282577],106%
9,Cc1cc(C)cc(Nc2c(-c3ccc(C(=O)O)cc3)nc3cnccn23)c1 [CBK287166],73.3%
10,Cc1cc(Cl)cc(Cl)c1S(=O)(=O)Nc1nc(-c2cccc([N+](=O)[O-])c2)cs1 [CBK000902],111%
11,O=P(O)(CN1CCOCC1)CN1CCOCC1 [CBK260914],97.6%
12,CSc1ncc(Cl)c(C(=O)Nc2sc3c(c2C(=O)NCc2ccco2)CCC3)n1 [CBK268991],97.2%
13,CC(C)C(NC(=O)c1cccc(-n2cnnc2)c1)c1cccs1 (stereo not shown) [CBK282442],111%
14,COc1ccc(C(=O)N2C[C@@H](C)O[C@@H](C)C2)c(OC)n1 [CBK200231],92.2%
15,Cc1ccc(N2C(=O)CC(Sc3ncccc3C(=O)O)C2=O)c(C)c1 (stereo not shown) [CBK269377],91.9%
16,COc1cc2c(cc1OC)CN(C(=O)CSc1nc3c(c(-c4cccs4)c1C#N)CN(C)CC3)CC2 [CBK267462],91.3%
17,COc1ccc(C(=O)N2CCN(Cc3ccc(SC)cc3)CC2)cc1 [CBK058613],112%
18,Cc1cc2oc(=O)cc(COC(=O)c3ccc(-n4cccn4)cc3)c2cc1Cl [CBK296626],93.9%
19,CC(=O)c1ccc(-c2nccnc2N2CCCC2CO)s1 (stereo not shown) [CBK037483],113%
20,Cc1nc(C2CCN(C(=O)CCc3ccno3)CC2)c2sccn12 [CBK282239],93.1%
21,CNC(=O)N(O)C1N(NC(=O)Nc2ccccc2)C(=S)SC1(C)C (stereo not shown) [CBK261005],94.9%
22,O=C1CCCN1CCCNC(=O)N1CCCC(CO)C1 (stereo not shown) [CBK156063],94.3%
